# The NIST ThermoML archive (doi:10.1021/je060184i)
# Numbers after ± are expanded uncertainties.
# Key:
# [1] = excess molar enthalpy (molar enthalpy of mixing); xn = mol fraction of the nth substance listed; details: 298.15 K, 101 kPa, Liquid, Flow calorimetry
# [2] = Liquid, Closed cell (Static) method
Compound,vapor or sublimation pressure ([2]; 273.15 K) [kPa],vapor or sublimation pressure ([2]; 283.15 K) [kPa],vapor or sublimation pressure ([2]; 293.15 K) [kPa],vapor or sublimation pressure ([2]; 298.15 K) [kPa],vapor or sublimation pressure ([2]; 303.15 K) [kPa],vapor or sublimation pressure ([2]; 313.15 K) [kPa],vapor or sublimation pressure ([2]; 323.15 K) [kPa],vapor or sublimation pressure ([2]; 333.15 K) [kPa],vapor or sublimation pressure ([2]; 343.15 K) [kPa],vapor or sublimation pressure ([2]; 353.15 K) [kPa],vapor or sublimation pressure ([2]; 363.15 K) [kPa],further results
C=CCCCC [hex-1-ene] + CCCOC(C)=O,,,,,,,,,,,,excess molar enthalpy ([1]; x2 = 0.0943): 0.062 ± 0.00239 kcal/mol; excess molar enthalpy ([1]; x2 = 0.2122): 0.114 ± 0.00263 kcal/mol; excess molar enthalpy ([1]; x2 = 0.3238): 0.141 ± 0.00263 kcal/mol; excess molar enthalpy ([1]; x2 = 0.418): 0.151 ± 0.00263 kcal/mol; excess molar enthalpy ([1]; x2 = 0.4609): 0.152 ± 0.00263 kcal/mol; excess molar enthalpy ([1]; x2 = 0.4822): 0.152 ± 0.00263 kcal/mol; excess molar enthalpy ([1]; x2 = 0.5032): 0.151 ± 0.00263 kcal/mol; excess molar enthalpy ([1]; x2 = 0.5241): 0.15 ± 0.00263 kcal/mol; excess molar enthalpy ([1]; x2 = 0.5449): 0.148 ± 0.00263 kcal/mol; excess molar enthalpy ([1]; x2 = 0.6178): 0.139 ± 0.00263 kcal/mol; excess molar enthalpy ([1]; x2 = 0.7186): 0.117 ± 0.00263 kcal/mol; excess molar enthalpy ([1]; x2 = 0.8117): 0.0874 ± 0.00263 kcal/mol; excess molar enthalpy ([1]; x2 = 0.9076): 0.0475 ± 0.00239 kcal/mol
C1CCCCC1 [cyclohexane],3.73 ± 0.03,6.357 ± 0.043,10.37 ± 0.064,13.04 ± 0.078,16.26 ± 0.096,24.65 ± 0.14,36.24 ± 0.2,51.85 ± 0.28,72.39 ± 0.39,98.85 ± 0.53,132.33 ± 0.71,vapor or sublimation pressure ([2]; 263.15 K): 2.082 ± 0.023 kPa
CCCOC(C)=O [propyl ethanoate],1.006 ± 0.018,1.909 ± 0.022,3.43 ± 0.029,4.514 ± 0.034,5.875 ± 0.041,9.645 ± 0.06,15.25 ± 0.09,23.33 ± 0.13,34.64 ± 0.19,50.07 ± 0.28,70.64 ± 0.38,vapor or sublimation pressure ([2]; 263.15 K): 0.4981 ± 0.01 kPa
CCCOC(C)=O [propyl ethanoate] + C1CCCCC1,,,,,,,,,,,,excess molar enthalpy ([1]; x1 = 0.1031): 0.127 ± 0.00263 kcal/mol; excess molar enthalpy ([1]; x1 = 0.1888): 0.195 ± 0.00287 kcal/mol; excess molar enthalpy ([1]; x1 = 0.2926): 0.244 ± 0.00311 kcal/mol; excess molar enthalpy ([1]; x1 = 0.3829): 0.265 ± 0.00311 kcal/mol; excess molar enthalpy ([1]; x1 = 0.4249): 0.268 ± 0.00311 kcal/mol; excess molar enthalpy ([1]; x1 = 0.4667): 0.269 ± 0.00311 kcal/mol; excess molar enthalpy ([1]; x1 = 0.4876): 0.267 ± 0.00311 kcal/mol; excess molar enthalpy ([1]; x1 = 0.5084): 0.265 ± 0.00311 kcal/mol; excess molar enthalpy ([1]; x1 = 0.5827): 0.252 ± 0.00311 kcal/mol; excess molar enthalpy ([1]; x1 = 0.6881): 0.215 ± 0.00287 kcal/mol; excess molar enthalpy ([1]; x1 = 0.7883): 0.163 ± 0.00263 kcal/mol; excess molar enthalpy ([1]; x1 = 0.8945): 0.0901 ± 0.00263 kcal/mol
C=CCCCC [hex-1-ene],7.687 ± 0.051,12.64 ± 0.076,19.98 ± 0.12,24.77 ± 0.14,30.46 ± 0.17,44.98 ± 0.25,64.6 ± 0.35,90.44 ± 0.49,123.79 ± 0.67,165.99 ± 0.89,218.5 ± 1.2,
CCCCCCC [heptane],1.531 ± 0.02,2.76 ± 0.025,4.736 ± 0.034,6.104 ± 0.04,7.787 ± 0.049,12.32 ± 0.07,18.85 ± 0.1,27.99 ± 0.15,40.43 ± 0.21,56.99 ± 0.29,78.59 ± 0.4,
CCCOC(C)=O [propyl ethanoate] + CCCCCCC,,,,,,,,,,,,excess molar enthalpy ([1]; x1 = 0.1087): 0.121 ± 0.00263 kcal/mol; excess molar enthalpy ([1]; x1 = 0.1348): 0.143 ± 0.00263 kcal/mol; excess molar enthalpy ([1]; x1 = 0.2399): 0.214 ± 0.00287 kcal/mol; excess molar enthalpy ([1]; x1 = 0.3594): 0.259 ± 0.00311 kcal/mol; excess molar enthalpy ([1]; x1 = 0.457): 0.273 ± 0.00311 kcal/mol; excess molar enthalpy ([1]; x1 = 0.5004): 0.273 ± 0.00311 kcal/mol; excess molar enthalpy ([1]; x1 = 0.5217): 0.272 ± 0.00311 kcal/mol; excess molar enthalpy ([1]; x1 = 0.5427): 0.27 ± 0.00311 kcal/mol; excess molar enthalpy ([1]; x1 = 0.5634): 0.266 ± 0.00311 kcal/mol; excess molar enthalpy ([1]; x1 = 0.5838): 0.262 ± 0.00311 kcal/mol; excess molar enthalpy ([1]; x1 = 0.6544): 0.244 ± 0.00311 kcal/mol; excess molar enthalpy ([1]; x1 = 0.7495): 0.202 ± 0.00287 kcal/mol; excess molar enthalpy ([1]; x1 = 0.8346): 0.15 ± 0.00263 kcal/mol; excess molar enthalpy ([1]; x1 = 0.92): 0.0807 ± 0.00263 kcal/mol; excess molar enthalpy ([1]; x1 = 0.9526): 0.0495 ± 0.00239 kcal/mol
